# Results from paper PMC10692721, “Drug discovery for heart failure targeting myosin-binding protein C” (The Journal of Biological Chemistry, 2023).
# Counter-ions that a name gives are not always drawn. *1 amine or outer side, *2 acyl side, *3 side chain or, on linkers, in order; H or OH if unused. Where a SMILES comes first, the peptide text is derived from it. Bridges are numbered along the chain shown (N, C = ends). [ ]: non-standard residue; d: D form. The star is where a group is joined. pTerphenylCO(4''-OnC5H11) = CCCCCOc1ccc(-c2ccc(-c3ccc(C(=O)*)cc3)cc2)cc1; Orn(4R-OH,5R-OH) = O=C([C@H](C[C@@H](O)[C@@H](O)N[*:3])N[*:1])[*:2]; hTyr(3S-OH,4S-OH) = N[C@H](C(=O)O)[C@H](O)[C@@H](O)c1ccc(O)cc1; Pro(3S-OH,4S-Me) = C[C@H]1CN[C@H](C(=O)O)[C@H]1O; Hyp = O=C(O)[C@@H]1C[C@@H](O)CN1
# Legend:
# [1] = tested on: TMR-cC0-C2 (C0-C2 fragment of human cMyBP-C); assay: FLT-TMR concentration-response assay (FLT of TMR on cC0-C2, no actin); format: binding; conditions: for cC0-C2/cC0-C2#P (ratio of FLT changes) / cC0-C2 FLT change (% change from DMSO, FLT of TMR-MyBP-C): 60 μM compound
# Experimental: (§1) Compounds identified as initial hits were further examined to determine the concentration–response curves for seven conditions ([1]): FMAL-actin alone identified actin-binding compounds that alter the FLT of FMAL-actin ([2]).
# (§2) Fluorescence lifetime (FLT) measurements were acquired using a high-throughput FLT plate reader (Fluorescence Innovations, Inc) ([14], [27]), provided by Photonic Pharma LLC. […] The observed waveforms were analyzed as described previously ([15], [28]).
# (§3) The primary hits were dissolved in DMSO to make a 10 mM stock solution, which was serially diluted in 96-well mother plates. Hits were screened at eight concentrations (0.5–100 μM). […] Compounds (1 μl) were transferred from the mother plates into 384-well plates using a Mosquito HV liquid handler (TTP Labtech Ltd, Hertfordshire, UK). The same procedure of dispensing as for the pilot screening was applied in the concentration-response assays. Concentration dependence of the FLT-FRET (E/EDMSO) or FLT-TMR (Δτ) change data was fit to a Hill equation only under certain conditions to help guide the eye (Fig. 4).
# [2] = tested on: TMR-fC1-C2 (C1-C2 of fast skeletal MyBP-C); assay: FLT-TMR concentration-response assay, fC1-C2; format: binding; conditions: 60 μM compound
# Experimental: as §1, §2, §3
# [3] = tested on: FMAL-actin plus TMR-cC0-C2; assay: Selleck library HTS, 473 nm excitation (FLT of FMAL-actin with TMR-cC0-C2, FLT-FRET); format: binding, human; conditions: for 473-nm Δτ, Repeat 1 / 473-nm Δτ, Repeat 2: initial screen, 30 μM compound; for 473-nm z-score (based on avg Δτ): robust z-score, hit threshold ±4, 30 μM compound
# Experimental: as §2
# (§4) In total, 50 nl of each solution was dispensed in DMSO using an automated Echo 550 acoustic liquid dispenser (Labcyte). Compounds were formatted into the assay plates, at a final concentration of 30 μM, with the first two and second to last columns loaded with DMSO only (compound-free controls). In the final column, 30 μM of suramin was loaded as a positive control (tool compound). These assay plates were then heat-sealed using a PlateLoc Thermal Microplate Sealer (Agilent Technologies) and stored at −20 °C. Before screening, compound plates were equilibrated to room temperature (∼25 °C). […] Plates were incubated at room temperature for 60 min before recording the data with the fluorescence lifetime plate reader.
# After fitting the waveforms with a single exponential decay to quantify donor FLT, the change in FLT (Δτ) was computed by performing a moving median subtraction in the order the plate was scanned with a window size of half a plate row […]. The reasons for this are twofold. Firstly, plate gradients are often observed due to the heating of the digitizer during acquisition.
# To account for the necessity to correct for plate gradients in the computation of E, the median τDMSO prior to the application of the moving median correction was added to each well’s Δτ value to recover a rescaled value of τ.
# [4] = tested on: PKA-phosphorylated TMR-cC0-C2 (cC0-C2#P); assay: FLT-TMR concentration-response assay, PKA-phosphorylated cC0-C2; format: binding, human; conditions: 60 μM compound
# Experimental: as §1, §2, §3
# TMR-cC0-C2 = assay: Selleck library HTS, 532 nm excitation (FLT of TMR-cC0-C2 in presence of FMAL-actin); format: binding, human; conditions: for 532-nm Δτ, Repeat 1 / 532-nm Δτ, Repeat 2: initial screen, 30 μM compound; for 532-nm z-score (based on avg Δτ): robust z-score, hit threshold ±4, 30 μM compound
# Experimental: as §2, §4
# Hits that exceeded the z-score hit criteria in the donor-only screen were excluded from consideration. To remove compounds with confounding fluorescence properties, a similarity index (SI, specifically the cosine distance, Equation 5) was computed using data from the SUPR instrument by comparing a region (500–540 nm) of the donor-only spectrum (I^(a)) for each well to that of the plate-wide average DMSO spectrum (I^(b)) in the same wavelength band ([29]). Compounds that exceeded an SI robust z-score of 4 were deemed likely fluorescent compounds and removed from consideration.(5) SI=1−∑Ii(a).Ii(b)/∑Ii(a).Ii(a)∑Ii(b).Ii(b)
# [5] = tested on: FMAL-actin/TMR-cC0-C2 interaction; assay: FLT-FRET concentration-response assay, FMAL-actin plus TMR-cC0-C2; format: binding, human; conditions: unphosphorylated cC0-C2
# Experimental: as §1, §2, §3
# [6] = listed as Erlotinib HCl (OSI-744)
SMILES,cC0-C2/cC0-C2#P (ratio of FLT changes) [1],"cC0-C2 FLT change (% change from DMSO, FLT of TMR-MyBP-C) [1]",cC0-C2/fC1-C2 (ratio of FLT changes) [2],"fC1-C2 FLT change (% change from DMSO, FLT of TMR-MyBP-C) [2]","473-nm Δτ, Repeat 1 [3]","473-nm Δτ, Repeat 2 [3]",473-nm z-score (based on avg Δτ) [3],"cC0-C2#P FLT change (% change from DMSO, FLT of TMR-MyBP-C) [4]","532-nm Δτ, Repeat 1 (TMR-cC0-C2)","532-nm Δτ, Repeat 2 (TMR-cC0-C2)",532-nm z-score (based on avg Δτ) (TMR-cC0-C2),"473-nm Δτ, Repeat 1 [3, 6]","473-nm Δτ, Repeat 2 [3, 6]","473-nm z-score (based on avg Δτ) [3, 6]","532-nm Δτ, Repeat 1 (TMR-cC0-C2; [6])","532-nm Δτ, Repeat 2 (TMR-cC0-C2; [6])",532-nm z-score (based on avg Δτ) (TMR-cC0-C2; [6]),difference in effect on TMR FLT between unphosphorylated and phosphorylated TMR-cC0-C2 ([1]; from Table 3),effect on FLT-FRET / binding between FMAL-actin and TMR-cC0-C2 (in words) [5]
O=C(O)[C@H]1O[C@@H](Oc2cc3oc(-c4ccc(O)cc4)cc(=O)c3c(O)c2O)[C@H](O)[C@@H](O)[C@@H]1O [Scutellarin],1.0,−9.1%,1.0,−9.5%,0.142 ns,0.076 ns,6.15,−8.7%,-0.111 ns,-0.145 ns,-7.79,,,,,,,,
C#Cc1cccc(Nc2ncnc3cc(OCCOC)c(OCCOC)cc23)c1 [Erlotinib HCl],0.8,11.8%,1.1,11.1%,,,,13.9%,,,,-0.040 ns,-0.010 ns,-1.36,0.138 ns,0.020 ns,4.88,,
O=C(Nc1ccc(Cl)cc1)Nc1ccc(Cl)c(Cl)c1 [Triclocarban],0.6,11.6%,0.5,22.2%,-0.128 ns,-0.042 ns,-4.72,18.2%,0.374 ns,0.415 ns,24.12,,,,,,,,
CCc1c(Cl)c(O)c(Cl)c(O)c1C(=O)O[C@H]1[C@H](O)[C@H](OC)[C@H](OC/C2=C\C=C\C[C@H](O)/C(C)=C/[C@H](CC)[C@@H](O[C@@H]3OC(C)(C)[C@@H](OC(=O)C(C)C)[C@H](O)[C@@H]3O)/C(C)=C/C(C)=C/C[C@@H]([C@@H](C)O)OC2=O)O[C@@H]1C [Fidaxomicin],10.4,−5.2%,1.2,−4.3%,0.057 ns,0.084 ns,3.98,−0.5%,-0.001 ns,-0.028 ns,-0.86,,,,,,,10.4 fold,
"CCCCCOc1ccc(-c2ccc(-c3ccc(C(=O)N[C@H]4C[C@@H](O)[C@@H](O)NC(=O)[C@@H]5[C@@H](O)[C@@H](C)CN5C(=O)[C@H]([C@@H](C)O)NC(=O)[C@H]([C@H](O)[C@@H](O)c5ccc(O)cc5)NC(=O)[C@@H]5C[C@@H](O)CN5C(=O)[C@H]([C@@H](C)O)NC4=O)cc3)cc2)cc1 [Anidulafungin] ({pTerphenylCO(4''-OnC5H11)}-[Orn(4R-OH,5R-OH)]T[Hyp][hTyr(3S-OH,4S-OH)]T[Pro(3S-OH,4S-Me)]; lactam 1-C)",0.7,32.1%,0.6,53.0%,0.014 ns,0.008 ns,0.67,43.3%,0.403 ns,0.441 ns,25.80,,,,,,,,
Cc1ccc(Nc2c(F)cccc2Cl)c(CC(=O)O)c1 [Lumiracoxib],,,,,0.093 ns,0.064 ns,4.45,,-0.054 ns,-0.036 ns,-2.72,,,,,,,,decrease
